Source: US11066406B2, “Small molecule inhibitors of the JAK family of kinases” (Janssen Pharmaceutica NV, priority 2018, dated 2021)

Columns and labels:
[1] = Physical stability of solid forms (accelerated aging conditions / ambient); type: physicochemical; details: 2 days at 40° C./70% RH, HT-XRPD
Method: Long term slurry experiments were performed by suspending compound embodiment 1s in twenty neat solvents and stirring at room temperature for two weeks and at 50° C. for one week. Upon completion of the equilibration time, the residual solids were separated from the mother liquors. The solids were dried under ambient conditions and dried under vacuum (5 mBar) before being analyzed by HT-XRPD. Subsequently, the solids were exposed to accelerated aging conditions (40° C./70% relative humidity) for two days and again analyzed by HT-XRPD.
The mother liquors of the solvent equilibration experiments performed at 50° C. were filtered at 50° C. to remove any particulate matter. The suspensions at 50° C. were filtered using 0.2 μm PTFE filters, and the solutions were placed at 5° C. and aged for 72 hours. When solids had precipitated during aging these solids were separated from the liquid, dried under ambient conditions and under vacuum, and analyzed by HT-XRPD. The remaining mother liquors were allowed to slowly evaporate and the remaining solids were analyzed by HT-XRPD. The samples in which no precipitation occurred were placed under vacuum and the dried solids were analyzed by HT-XRPD. All the solids were then exposed to AAC (2 days at 40° C./70% RH) and re-analyzed by HT-XRPD.
The cooling/evaporative crystallization experiments at μL scale were performed in a 96-well plate, using 12 neat solvents and 12 solvent mixtures and applying four temperature profiles. In each well approximately 4 mg of embodiment 1s was solid dosed. Subsequently, the crystallization solvents (80 μL) and solvent mixtures were added to reach a concentration of 50 mg/mL, and the plate, with each well individually sealed, to subsequently undergo one of the four temperature profiles. Upon completion of the temperature profile the solvents were allowed to evaporate at low ambient pressure (24 hours) and the remaining solids were analyzed by HT-XRPD before and after exposure to AAC for 2 days (40° C./70% RH).
The cooling crystallization experiments with hot filtration were performed from supersaturated solutions of compound Ex. 1 prepared at 50° C. in different solvent mixtures. The hot filtrated solutions underwent a 48-hour cooling profile. The vials in which solids had precipitated after the temperature profile were centrifuged and the solids were separated from the liquid and analyzed by HT-XRPD (after drying under vacuum). If no solids had precipitated the solutions were evaporated under vacuum and the solids analyzed by HT-XRPD. All the solids were exposed to AAC (2 days at 40° C./70% RH) and re-analyzed by HT-XRPD. […] In three experiments, an amorphous residue was recovered which after AAC crystallized to a mixture of members of embodiment 1 (1s or 1a) and 3 (3e) or became deliquescent. […]

[2] = Hygroscopicity (GVS) and static storage of embodiment 11; type: physicochemical
Method: In a hygroscopicity study of embodiment 11, it was found it to be only slightly hygroscopic, with a mass change of 0.66% between 0-90% RH in the GVS analysis as shown in FIG. 18. […] Variable temperature (VT)-XRPD was performed in order to assess the stability of embodiment 11 upon heating. […] The diffractograms of embodiment 11 before and after the VT-XRPD experiment, along with the diffractogram for embodiment 6 are shown in FIG. 24. Embodiment 11 was also subjected to static storage analysis at 40° C./75% RH for up to 48 days. The samples were analyzed by XRPD and Karl Fisher (KF) after 2 days, 5 days and 48 days.

| physical stability after accelerated aging conditions (AAC) [1] | physical stability by XRPD on static storage ([2]; 40° C./75% RH for up to 48 days) | mass change in GVS analysis ([2]; between 0-90% RH) [%] | total water uptake (Karl Fisher) ([2]; static storage 40° C./75% RH, after 48 days) [%] | SMILES |
| --- | --- | --- | --- | --- |
| converted to embodiment 3e |  |  |  | CC(C)(O)CNC(=O)Cc1nc2cnc3[nH]ccc3c2n1[C@H]1CC[C@H](CC#N)CC1 [embodiment 2, 2-(1-((1r,4r)-4-(Cyanomethyl)cyclohexyl)-1,6-dihydroimidazo[4,5-d]pyrrolo[2,3-b]pyridin-2-yl)-N-(2-hydroxy-2-methylpropyl)acetamide] |
| physically unstable |  |  |  | CC(C)(O)CNC(=O)Cc1nc2cnc3[nH]ccc3c2n1[C@H]1CC[C@H](CC#N)CC1 [embodiment 5, 2-(1-((1r,4r)-4-(Cyanomethyl)cyclohexyl)-1,6-dihydroimidazo[4,5-d]pyrrolo[2,3-b]pyridin-2-yl)-N-(2-hydroxy-2-methylpropyl)acetamide] |
| stable solid form |  |  |  | CC(C)(O)CNC(=O)Cc1nc2cnc3[nH]ccc3c2n1[C@H]1CC[C@H](CC#N)CC1 [embodiment 6, 2-(1-((1r,4r)-4-(Cyanomethyl)cyclohexyl)-1,6-dihydroimidazo[4,5-d]pyrrolo[2,3-b]pyridin-2-yl)-N-(2-hydroxy-2-methylpropyl)acetamide] |
| physically stable |  |  |  | CC(C)(O)CNC(=O)Cc1nc2cnc3[nH]ccc3c2n1[C@H]1CC[C@H](CC#N)CC1 [embodiment 7, 2-(1-((1r,4r)-4-(Cyanomethyl)cyclohexyl)-1,6-dihydroimidazo[4,5-d]pyrrolo[2,3-b]pyridin-2-yl)-N-(2-hydroxy-2-methylpropyl)acetamide] |
|  | remained unchanged | 0.66 | 1.2 | CC(C)(O)CNC(=O)Cc1nc2cnc3[nH]ccc3c2n1[C@H]1CC[C@H](CC#N)CC1 [embodiment 11, 2-(1-((1r,4r)-4-(Cyanomethyl)cyclohexyl)-1,6-dihydroimidazo[4,5-d]pyrrolo[2,3-b]pyridin-2-yl)-N-(2-hydroxy-2-methylpropyl)acetamide] |
